What is called IC50 is the concentration that inhibits the measured activity by half. Higher therefore signals weaker potency.

From BindingDB's records for doi:10.1016/j.chembiol.2005.08.008 (Gpc Biotech, 2005) come the findings set out here.

A value given as a limit tells only on which side of the number the result lay.

Assay [1] has as its target T1, Cyclin-dependent kinase/G2/mitotic-specific cyclin- 1 (Homo sapiens, UniProt P06493). The assay is described as follows: Cell Proliferation Assay. The protocol: Inhibition of HCT116 cell proliferation after 72hr of incubation with compounds was determined by SRB Assay.
Assay [2] addresses T2, Cyclin-dependent kinase 4/G1/S-specific cyclin-D1 (Homo sapiens, UniProt P11802). The assay is described as follows: In Vitro Kinase Assay. From the text:
(§1) Inhibition of in vitro kinase activity of purified CDKs.

The target in assay [3] is T3, Cyclin-dependent kinase 2/G1/S-specific cyclin-E1 (Homo sapiens, UniProt P24941). Kind of assay: In Vitro Kinase Assay.
Source text: as §1

In assay [4] the target is T1, Cyclin-dependent kinase/G2/mitotic-specific cyclin- 1. Kind of assay: In Vitro Kinase Assay.
Source text: as §1

The target of assay [5] is T2, Cyclin-dependent kinase 4/G1/S-specific cyclin-D1. Kind of assay: Inhibition Assay. The text has this: (§2) In vitro kinase activity of PEGylated pyrazolopyrimidone CDK inhibitor or a 5 PEG-amine was coupled to ReactiGel agarose beads (Pierce, No. 20259).
The target in assay [6] is T3, Cyclin-dependent kinase 2/G1/S-specific cyclin-E1. Kind of assay: Inhibition Assay.
Source text: as §2

Assay [7] addresses T1, Cyclin-dependent kinase/G2/mitotic-specific cyclin- 1. Kind of assay: Inhibition Assay.
Source text: as §2

Assay [8] has the same target. The assay is described as follows: Cell Proliferation Assay. The text has this:
Inhibition of HCT116 cell proliferation with compounds using calcein AM Assay.
This is another data set of the same source.

Assay [9] deals with Glycogen synthase kinase-3 beta (Homo sapiens, UniProt P49841). The assay is described as follows: In Vitro Kinase Assay.
A further assay has as its target CDK3/Cyclin E (Homo sapiens, UniProt Q00526). The assay is described as follows: In Vitro Kinase Assay.
Source text: as §1

Assay [10] addresses Cyclin-dependent kinase 6/G1/S-specific cyclin-D3 (Homo sapiens, UniProt Q00534). Kind of assay: In Vitro Kinase Assay.
Source text: as §1

For assay [11], the target named is T4, CDK-activating kinase assembly factor MAT1 (Homo sapiens, UniProt P51948).
T4 sequence (P51948 whole entry): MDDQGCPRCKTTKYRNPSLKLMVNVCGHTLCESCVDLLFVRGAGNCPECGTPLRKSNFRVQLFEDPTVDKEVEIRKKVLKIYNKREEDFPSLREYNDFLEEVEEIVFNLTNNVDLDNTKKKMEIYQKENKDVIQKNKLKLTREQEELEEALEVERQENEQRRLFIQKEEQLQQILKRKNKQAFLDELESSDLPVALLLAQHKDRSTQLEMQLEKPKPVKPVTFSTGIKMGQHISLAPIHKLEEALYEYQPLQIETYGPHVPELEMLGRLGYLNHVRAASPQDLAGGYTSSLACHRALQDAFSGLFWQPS
Kind of assay: In Vitro Kinase Assay.
Source text: as §1

Assay [12] has as its target Cyclin-dependent kinase 5 (Homo sapiens, UniProt Q00535). Kind of assay: In Vitro Kinase Assay.
Source text: as §1

T2 sequence (P11802 whole entry): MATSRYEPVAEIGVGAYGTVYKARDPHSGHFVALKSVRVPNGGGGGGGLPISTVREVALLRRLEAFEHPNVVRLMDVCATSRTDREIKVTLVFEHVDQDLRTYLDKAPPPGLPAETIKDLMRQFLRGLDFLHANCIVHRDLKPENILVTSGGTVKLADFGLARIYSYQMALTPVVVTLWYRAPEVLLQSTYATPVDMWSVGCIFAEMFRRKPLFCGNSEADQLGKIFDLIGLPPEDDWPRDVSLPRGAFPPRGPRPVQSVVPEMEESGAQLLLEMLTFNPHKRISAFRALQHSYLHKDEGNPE
T2 sequence (P24385 whole entry, further chain): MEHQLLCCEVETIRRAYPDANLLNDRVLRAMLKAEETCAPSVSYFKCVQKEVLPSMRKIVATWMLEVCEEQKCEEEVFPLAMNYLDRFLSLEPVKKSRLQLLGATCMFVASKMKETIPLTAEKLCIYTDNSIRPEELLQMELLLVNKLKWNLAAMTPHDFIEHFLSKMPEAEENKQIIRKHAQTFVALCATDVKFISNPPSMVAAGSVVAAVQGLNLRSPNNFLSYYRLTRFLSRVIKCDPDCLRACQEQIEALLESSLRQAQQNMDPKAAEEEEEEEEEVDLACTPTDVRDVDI
T1 sequence (P06493 whole entry): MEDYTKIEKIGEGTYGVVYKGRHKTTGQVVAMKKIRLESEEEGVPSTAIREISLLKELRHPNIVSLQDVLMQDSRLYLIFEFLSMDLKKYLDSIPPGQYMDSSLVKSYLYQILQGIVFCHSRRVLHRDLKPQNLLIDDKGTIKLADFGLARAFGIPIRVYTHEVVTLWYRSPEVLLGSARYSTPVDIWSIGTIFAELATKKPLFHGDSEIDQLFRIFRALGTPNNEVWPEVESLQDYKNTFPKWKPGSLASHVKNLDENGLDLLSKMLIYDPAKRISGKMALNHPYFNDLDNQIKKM
T1 sequence (P14635 whole entry, further chain): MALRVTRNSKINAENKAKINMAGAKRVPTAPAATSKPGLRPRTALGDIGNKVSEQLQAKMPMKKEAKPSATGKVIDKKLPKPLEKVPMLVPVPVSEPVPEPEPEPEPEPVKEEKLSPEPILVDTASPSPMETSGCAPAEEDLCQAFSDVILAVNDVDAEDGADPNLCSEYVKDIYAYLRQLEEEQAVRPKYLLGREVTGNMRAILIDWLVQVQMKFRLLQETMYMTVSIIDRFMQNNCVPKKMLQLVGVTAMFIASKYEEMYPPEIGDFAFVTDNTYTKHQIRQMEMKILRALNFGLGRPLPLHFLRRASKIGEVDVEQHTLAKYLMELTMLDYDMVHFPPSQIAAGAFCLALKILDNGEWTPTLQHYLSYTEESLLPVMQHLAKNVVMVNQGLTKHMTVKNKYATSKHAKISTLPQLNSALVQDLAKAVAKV
Sequence of CDK3/Cyclin E (P24864 whole entry): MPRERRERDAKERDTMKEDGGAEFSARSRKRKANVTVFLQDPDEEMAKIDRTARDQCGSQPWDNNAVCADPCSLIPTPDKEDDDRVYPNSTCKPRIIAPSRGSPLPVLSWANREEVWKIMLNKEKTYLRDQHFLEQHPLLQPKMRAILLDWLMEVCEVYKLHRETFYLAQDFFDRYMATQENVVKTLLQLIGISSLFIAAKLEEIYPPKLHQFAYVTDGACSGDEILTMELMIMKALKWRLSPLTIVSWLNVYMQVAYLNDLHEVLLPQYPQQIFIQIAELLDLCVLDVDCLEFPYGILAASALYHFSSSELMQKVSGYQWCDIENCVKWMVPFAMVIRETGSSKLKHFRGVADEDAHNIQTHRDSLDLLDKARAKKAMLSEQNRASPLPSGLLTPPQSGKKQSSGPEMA
Sequence of CDK3/Cyclin E (Q00526 whole entry): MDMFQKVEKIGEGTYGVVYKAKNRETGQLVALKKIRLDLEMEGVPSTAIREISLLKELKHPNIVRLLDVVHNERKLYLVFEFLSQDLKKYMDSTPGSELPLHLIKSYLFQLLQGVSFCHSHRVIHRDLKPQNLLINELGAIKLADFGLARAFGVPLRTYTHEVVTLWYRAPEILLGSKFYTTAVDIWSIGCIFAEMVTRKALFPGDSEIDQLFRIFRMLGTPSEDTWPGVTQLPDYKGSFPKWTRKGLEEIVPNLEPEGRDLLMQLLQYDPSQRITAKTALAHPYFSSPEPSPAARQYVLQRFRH
Sequence of Glycogen synthase kinase-3 beta (P49841 whole entry): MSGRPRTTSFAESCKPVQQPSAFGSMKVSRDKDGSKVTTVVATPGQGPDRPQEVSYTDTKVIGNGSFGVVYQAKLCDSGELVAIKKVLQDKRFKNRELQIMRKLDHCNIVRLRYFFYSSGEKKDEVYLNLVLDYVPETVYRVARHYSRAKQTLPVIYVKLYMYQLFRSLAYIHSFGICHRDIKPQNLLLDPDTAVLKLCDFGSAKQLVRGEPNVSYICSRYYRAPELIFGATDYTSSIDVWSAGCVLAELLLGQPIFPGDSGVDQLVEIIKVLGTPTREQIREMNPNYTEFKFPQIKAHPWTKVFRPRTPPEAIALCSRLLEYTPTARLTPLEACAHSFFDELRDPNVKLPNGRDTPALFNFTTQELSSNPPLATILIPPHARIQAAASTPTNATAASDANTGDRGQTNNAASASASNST
Sequence of Cyclin-dependent kinase 5 (Q00535 whole entry): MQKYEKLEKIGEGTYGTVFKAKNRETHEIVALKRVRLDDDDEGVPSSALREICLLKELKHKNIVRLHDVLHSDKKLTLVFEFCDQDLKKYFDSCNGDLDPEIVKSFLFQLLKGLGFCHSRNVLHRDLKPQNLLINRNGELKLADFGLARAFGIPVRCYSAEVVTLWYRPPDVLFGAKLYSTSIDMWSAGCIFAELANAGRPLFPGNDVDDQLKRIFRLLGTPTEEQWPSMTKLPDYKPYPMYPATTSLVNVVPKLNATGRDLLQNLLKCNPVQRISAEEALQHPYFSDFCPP
Sequence of Cyclin-dependent kinase 6/G1/S-specific cyclin-D3 (Q00534 whole entry): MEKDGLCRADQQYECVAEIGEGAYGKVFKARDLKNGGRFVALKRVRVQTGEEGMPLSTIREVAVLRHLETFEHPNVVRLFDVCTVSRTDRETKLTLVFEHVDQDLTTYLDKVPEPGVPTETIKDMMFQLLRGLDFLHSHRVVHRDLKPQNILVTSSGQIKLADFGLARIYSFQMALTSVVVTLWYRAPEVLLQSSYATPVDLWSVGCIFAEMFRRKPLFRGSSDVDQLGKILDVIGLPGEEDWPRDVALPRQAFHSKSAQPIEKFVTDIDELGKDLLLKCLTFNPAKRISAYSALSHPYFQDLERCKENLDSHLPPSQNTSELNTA
Sequence of Cyclin-dependent kinase 6/G1/S-specific cyclin-D3 (P30281 whole entry, further chain): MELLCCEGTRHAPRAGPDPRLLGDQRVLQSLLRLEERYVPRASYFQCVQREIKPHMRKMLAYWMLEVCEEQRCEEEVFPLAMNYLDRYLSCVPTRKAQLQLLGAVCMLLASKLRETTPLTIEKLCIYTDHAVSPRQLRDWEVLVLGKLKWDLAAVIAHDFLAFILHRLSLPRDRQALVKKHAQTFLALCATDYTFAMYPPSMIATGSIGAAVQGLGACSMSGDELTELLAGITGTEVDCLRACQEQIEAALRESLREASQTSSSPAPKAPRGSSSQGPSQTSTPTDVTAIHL

`CC(C)c1nn(-c2c(Cl)cccc2Cl)c2nc(Cc3ccc(OCCN4CCOCC4)cc3)[nH]c(=O)c12` [Pyrazolopyrimidone analog, RGB-285960]: the IC50 amounted to 64 nM in [1], 1750 nM in assay [2], 9 nM in assay [3] and 310 nM in assay [4].
Take `COc1ccc(Cc2nc3c(c(C(C)C)nn3-c3c(Cl)cccc3Cl)c(=O)[nH]2)cc1` [Pyrazolopyrimidone analog, RGB-286331]: the IC50 in assay [1] worked out at 220 nM; in assay [3], 4 nM; in assay [4], 43 nM.
`COCCOCCOCCOc1ccc(Cc2nc3c(c(C(C)C)nn3-c3c(Cl)cccc3Cl)c(=O)[nH]2)cc1` [PEGylated derivative, RGB-286276]: the half-inhibitory concentration (IC50) turned out to be 890 nM in assay [5], 22 nM in [6], 84 nM in assay [7] and 34 nM in assay [8].
In the case of `COc1ccc(Cc2nc3c(c(C(C)C)nn3-c3c(Cl)cc(Cl)cc3Cl)c(=O)[nH]2)cc1` [Pyrazolopyrimidone analog, RGB-285940], the IC50 in [1] turned out to be 410 nM; in assay [2], 858 nM; in [3], 7 nM; in assay [4], 230 nM.
Turning to `CC(C)c1nn(-c2c(Cl)cccc2Cl)c2nc(Cc3ccc(OCCO)cc3)[nH]c(=O)c12` [Pyrazolopyrimidone analog, RGB-286147], the half-inhibitory concentration (IC50) in [9] was determined as 754 nM; in assay [1], 51 nM; against CDK3/Cyclin E it was 9 nM; in assay [2] it was 839 nM; in assay [10] it was 282 nM; in assay [3], 15 nM. Also, the IC50 in assay [11] came out at 71 nM; in assay [12] it was 10 nM; in [4] it was 48 nM.
Molecule `COc1ccc(Cc2nc3c(c(Cc4ccccc4)nn3-c3c(Cl)cc(Cl)cc3Cl)c(=O)[nH]2)cc1` [Pyrazolopyrimidone analog, RGB-310591] had a 50% inhibitory concentration (IC50) in assay [1] above 10000 nM.
The same measure, in the same setting: then `COc1ccc(Cc2nc3c(c(C(C)C)nn3-c3ccccc3)c(=O)[nH]2)cc1` [Pyrazolopyrimidone analog, RGB-310596], with above 10000 nM.
The same measure, in the same setting: then `COc1ccc(Cc2nc3c(cnn3-c3c(Cl)cc(Cl)cc3Cl)c(=O)[nH]2)cc1` [Pyrazolopyrimidone analog, RGB-310590], with 5500 nM; and `COc1ccc(Cc2nc3n[nH]c(C(C)C)c3c(=O)[nH]2)cc1` [Pyrazolopyrimidone analog, RGB-310595], with above 10000 nM.
